Measurements from the NIST ThermoML archive (doi:10.1016/j.fluid.2011.03.030).
Numbers after ± are expanded uncertainties.

Assays:
[1] = xn = mol fraction of the nth substance listed; details: 101 kPa, Liquid; for viscosity: Capillary tube (Ostwald / Ubbelohde) method; for mass density: Vibrating tube method
[2] = Liquid; for viscosity: Capillary tube (Ostwald / Ubbelohde) method; for mass density: Vibrating tube method; for vapor or sublimation pressure / Normal boiling temperature: Ebulliometric method (Recirculating still)

In the case of `CC1CCCCC1` [methylcyclohexane] + C1C[C@@H]2[C@H]3CC[C@H](C3)[C@@H]2C1, the viscosity ([1]; 303.15 K, x1 = 1) is reported as 0.627 ± 0.008 mPa·s, the mass density ([1]; 303.15 K, x1 = 1) is reported as 760.65 ± 0.21 kg/m3 and the viscosity ([1]; 308.15 K, x1 = 1) is reported as 0.581 ± 0.007 mPa·s. For the same molecule, the mass density ([1]; 308.15 K, x1 = 1) was 756.29 ± 0.21 kg/m3, the viscosity ([1]; 313.15 K, x1 = 1) was 0.554 ± 0.007 mPa·s and the mass density ([1]; 313.15 K, x1 = 1) was 751.93 ± 0.21 kg/m3.
Molecule `CC1CCCCC1` [methylcyclohexane] has a viscosity ([2]; 298.15 K, 101.33 kPa) of 0.678 ± 0.007 mPa·s, a mass density ([2]; 298.15 K, 101.33 kPa) of 765 ± 0.21 kg/m3 and a viscosity ([2]; 303.15 K, 101 kPa) of 0.627 ± 0.008 mPa·s. It also gave a mass density ([2]; 303.15 K, 101 kPa) of 760.65 ± 0.21 kg/m3, a viscosity ([2]; 308.15 K, 101 kPa) of 0.581 ± 0.007 mPa·s and a mass density ([2]; 308.15 K, 101 kPa) of 756.29 ± 0.21 kg/m3. For the same molecule, the viscosity ([2]; 313.15 K, 101 kPa) was 0.554 ± 0.007 mPa·s, the mass density ([2]; 313.15 K, 101 kPa) was 751.93 ± 0.21 kg/m3 and the “vapor or sublimation pressure” value ([2]; 321.9 K) was 17.91 ± 0.23 kPa. For the same molecule, the “vapor or sublimation pressure” value ([2]; 331.5 K) was 25.77 ± 0.24 kPa, the “vapor or sublimation pressure” value ([2]; 336.8 K) was 31.22 ± 0.25 kPa and the “vapor or sublimation pressure” value ([2]; 342.3 K) was 37.99 ± 0.27 kPa. For the same molecule, the “vapor or sublimation pressure” value ([2]; 346.9 K) was 44.45 ± 0.29 kPa, the “vapor or sublimation pressure” value ([2]; 350.7 K) was 50.35 ± 0.31 kPa and the “vapor or sublimation pressure” value ([2]; 355.2 K) was 58.09 ± 0.33 kPa. For the same molecule, the “vapor or sublimation pressure” value ([2]; 359.1 K) was 65.61 ± 0.35 kPa, the “vapor or sublimation pressure” value ([2]; 362.3 K) was 72.29 ± 0.37 kPa and the “vapor or sublimation pressure” value ([2]; 364.8 K) was 79.09 ± 0.4 kPa. For the same molecule, the “vapor or sublimation pressure” value ([2]; 366.4 K) was 85.13 ± 0.42 kPa, the “vapor or sublimation pressure” value ([2]; 369.8 K) was 92.76 ± 0.44 kPa and the “vapor or sublimation pressure” value ([2]; 373.9 K) was 100.7 ± 0.5 kPa. The Normal boiling temperature [2] was 98.98 ± 0.03 °C.
Molecule `C1C[C@@H]2[C@H]3CC[C@H](C3)[C@@H]2C1` [exo-tetrahydrodicyclopentadiene] has a viscosity ([2]; 298.15 K, 101.33 kPa) of 2.739 ± 0.029 mPa·s, a mass density ([2]; 298.15 K, 101.33 kPa) of 931.4 ± 0.5 kg/m3 and a viscosity ([2]; 303.15 K, 101 kPa) of 2.522 ± 0.034 mPa·s. The mass density ([2]; 303.15 K, 101 kPa) was 927.41 ± 0.45 kg/m3, the viscosity ([2]; 308.15 K, 101 kPa) was 2.298 ± 0.031 mPa·s and the mass density ([2]; 308.15 K, 101 kPa) was 923.48 ± 0.44 kg/m3. For the same molecule, the viscosity ([2]; 313.15 K, 101 kPa) was 2.107 ± 0.029 mPa·s, the mass density ([2]; 313.15 K, 101 kPa) was 919.58 ± 0.44 kg/m3 and the “vapor or sublimation pressure” value ([2]; 396 K) was 16.64 ± 0.23 kPa. For the same molecule, the “vapor or sublimation pressure” value ([2]; 401.4 K) was 20.62 ± 0.24 kPa, the “vapor or sublimation pressure” value ([2]; 413.8 K) was 30.3 ± 0.26 kPa and the “vapor or sublimation pressure” value ([2]; 418.3 K) was 34.79 ± 0.28 kPa. For the same molecule, the “vapor or sublimation pressure” value ([2]; 426.8 K) was 44.86 ± 0.31 kPa, the “vapor or sublimation pressure” value ([2]; 431.2 K) was 50.7 ± 0.33 kPa and the “vapor or sublimation pressure” value ([2]; 434.5 K) was 55.76 ± 0.35 kPa. The “vapor or sublimation pressure” value ([2]; 436.6 K) was 59.2 ± 0.36 kPa, the “vapor or sublimation pressure” value ([2]; 439 K) was 63.22 ± 0.38 kPa and the “vapor or sublimation pressure” value ([2]; 441.1 K) was 66.63 ± 0.39 kPa. The “vapor or sublimation pressure” value ([2]; 442.7 K) was 69.49 ± 0.4 kPa, the “vapor or sublimation pressure” value ([2]; 442.8 K) was 69.77 ± 0.41 kPa and the “vapor or sublimation pressure” value ([2]; 444.3 K) was 72.58 ± 0.42 kPa. For the same molecule, the “vapor or sublimation pressure” value ([2]; 445.7 K) was 75.11 ± 0.43 kPa, the “vapor or sublimation pressure” value ([2]; 446.1 K) was 75.89 ± 0.43 kPa and the “vapor or sublimation pressure” value ([2]; 450 K) was 83.92 ± 0.46 kPa. For the same molecule, the “vapor or sublimation pressure” value ([2]; 457.3 K) was 101.1 ± 0.5 kPa and the Normal boiling temperature [2] was 184.94 ± 0.04 °C.
`C1C[C@@H]2[C@H]3CC[C@H](C3)[C@@H]2C1` [exo-tetrahydrodicyclopentadiene] + CC1CCCCC1 gave a viscosity ([1]; 303.15 K, x2 = 0) of 2.522 ± 0.034 mPa·s, a viscosity ([1]; 303.15 K, x2 = 0.1404) of 2.047 ± 0.027 mPa·s and a viscosity ([1]; 303.15 K, x2 = 0.2593) of 1.754 ± 0.023 mPa·s. The viscosity ([1]; 303.15 K, x2 = 0.3693) was 1.502 ± 0.019 mPa·s, the viscosity ([1]; 303.15 K, x2 = 0.4981) was 1.258 ± 0.016 mPa·s and the viscosity ([1]; 303.15 K, x2 = 0.5813) was 1.113 ± 0.014 mPa·s. For the same molecule, the viscosity ([1]; 303.15 K, x2 = 0.6745) was 0.975 ± 0.012 mPa·s, the viscosity ([1]; 303.15 K, x2 = 0.763) was 0.866 ± 0.011 mPa·s and the viscosity ([1]; 303.15 K, x2 = 0.8469) was 0.772 ± 0.01 mPa·s. For the same molecule, the viscosity ([1]; 303.15 K, x2 = 0.9245) was 0.693 ± 0.009 mPa·s, the mass density ([1]; 303.15 K, x2 = 0) was 927.41 ± 0.45 kg/m3 and the mass density ([1]; 303.15 K, x2 = 0.1404) was 907.42 ± 0.39 kg/m3. It also gave a mass density ([1]; 303.15 K, x2 = 0.2593) of 889.67 ± 0.35 kg/m3, a mass density ([1]; 303.15 K, x2 = 0.3693) of 872.78 ± 0.32 kg/m3 and a mass density ([1]; 303.15 K, x2 = 0.4981) of 851.85 ± 0.28 kg/m3. It also gave a mass density ([1]; 303.15 K, x2 = 0.5813) of 837.98 ± 0.26 kg/m3, a mass density ([1]; 303.15 K, x2 = 0.6745) of 821.76 ± 0.25 kg/m3 and a mass density ([1]; 303.15 K, x2 = 0.763) of 805.84 ± 0.23 kg/m3. The mass density ([1]; 303.15 K, x2 = 0.8469) was 790.22 ± 0.22 kg/m3, the mass density ([1]; 303.15 K, x2 = 0.9245) was 775.47 ± 0.22 kg/m3 and the viscosity ([1]; 308.15 K, x2 = 0) was 2.298 ± 0.031 mPa·s. It also gave a viscosity ([1]; 308.15 K, x2 = 0.1404) of 1.891 ± 0.025 mPa·s, a viscosity ([1]; 308.15 K, x2 = 0.2593) of 1.616 ± 0.021 mPa·s and a viscosity ([1]; 308.15 K, x2 = 0.3693) of 1.386 ± 0.018 mPa·s. It also gave a viscosity ([1]; 308.15 K, x2 = 0.4981) of 1.163 ± 0.015 mPa·s, a viscosity ([1]; 308.15 K, x2 = 0.5813) of 1.02 ± 0.013 mPa·s and a viscosity ([1]; 308.15 K, x2 = 0.6745) of 0.897 ± 0.011 mPa·s. For the same molecule, the viscosity ([1]; 308.15 K, x2 = 0.763) was 0.798 ± 0.01 mPa·s, the viscosity ([1]; 308.15 K, x2 = 0.8469) was 0.711 ± 0.009 mPa·s and the viscosity ([1]; 308.15 K, x2 = 0.9245) was 0.644 ± 0.008 mPa·s. The mass density ([1]; 308.15 K, x2 = 0) was 923.48 ± 0.44 kg/m3, the mass density ([1]; 308.15 K, x2 = 0.1404) was 903.45 ± 0.39 kg/m3 and the mass density ([1]; 308.15 K, x2 = 0.2593) was 885.65 ± 0.35 kg/m3. The mass density ([1]; 308.15 K, x2 = 0.3693) was 868.72 ± 0.32 kg/m3, the mass density ([1]; 308.15 K, x2 = 0.4981) was 847.73 ± 0.28 kg/m3 and the mass density ([1]; 308.15 K, x2 = 0.5813) was 833.82 ± 0.26 kg/m3. For the same molecule, the mass density ([1]; 308.15 K, x2 = 0.6745) was 817.58 ± 0.25 kg/m3, the mass density ([1]; 308.15 K, x2 = 0.763) was 801.58 ± 0.23 kg/m3 and the mass density ([1]; 308.15 K, x2 = 0.8469) was 785.95 ± 0.22 kg/m3. It also gave a mass density ([1]; 308.15 K, x2 = 0.9245) of 771.16 ± 0.22 kg/m3, a viscosity ([1]; 313.15 K, x2 = 0) of 2.107 ± 0.029 mPa·s and a viscosity ([1]; 313.15 K, x2 = 0.1404) of 1.736 ± 0.023 mPa·s. The viscosity ([1]; 313.15 K, x2 = 0.2593) was 1.475 ± 0.019 mPa·s, the viscosity ([1]; 313.15 K, x2 = 0.3693) was 1.275 ± 0.017 mPa·s and the viscosity ([1]; 313.15 K, x2 = 0.4981) was 1.078 ± 0.014 mPa·s. The viscosity ([1]; 313.15 K, x2 = 0.5813) was 0.963 ± 0.012 mPa·s, the viscosity ([1]; 313.15 K, x2 = 0.6745) was 0.862 ± 0.011 mPa·s and the viscosity ([1]; 313.15 K, x2 = 0.763) was 0.754 ± 0.009 mPa·s. It also gave a viscosity ([1]; 313.15 K, x2 = 0.8469) of 0.675 ± 0.008 mPa·s, a viscosity ([1]; 313.15 K, x2 = 0.9245) of 0.612 ± 0.008 mPa·s and a mass density ([1]; 313.15 K, x2 = 0) of 919.58 ± 0.44 kg/m3. The mass density ([1]; 313.15 K, x2 = 0.1404) was 899.48 ± 0.39 kg/m3, the mass density ([1]; 313.15 K, x2 = 0.2593) was 881.63 ± 0.35 kg/m3 and the mass density ([1]; 313.15 K, x2 = 0.3693) was 864.67 ± 0.31 kg/m3. For the same molecule, the mass density ([1]; 313.15 K, x2 = 0.4981) was 843.61 ± 0.28 kg/m3, the mass density ([1]; 313.15 K, x2 = 0.5813) was 829.66 ± 0.26 kg/m3 and the mass density ([1]; 313.15 K, x2 = 0.6745) was 813.38 ± 0.25 kg/m3. For the same molecule, the mass density ([1]; 313.15 K, x2 = 0.763) was 797.33 ± 0.23 kg/m3, the mass density ([1]; 313.15 K, x2 = 0.8469) was 781.66 ± 0.22 kg/m3 and the mass density ([1]; 313.15 K, x2 = 0.9245) was 766.83 ± 0.22 kg/m3.
